# Assay results published in patent US9067920B2, “Compounds useful for inhibiting Chk1” (Eli Lilly and Company, priority 2010, dated 2015).
# Structures can show the parent of a compound that is named as a salt.
# How the values were obtained:
# [1] = target: recombinant Chk2 protein kinase (Homo sapiens, UniProt O96017); assay: Chk2 biochemical assay (CHK2/substrate peptide filter binding); details: 60 μM ATP, 1.4 nM Chk2 enzyme
# Procedure: The effect of compounds on Chk2 biochemical activity can be determined using a CHK2/substrate peptide filter binding assay. In this assay, a synthetic peptide based on the amino acid sequence residues 206-225 of Cdc25C, is used as a phospho-acceptor substrate for recombinant Chk2 protein kinase. Using γ-^33P-ATP as the phospho-donor substrate, Chk2 transfers the radioactive γ-^33phosphate group to the synthetic peptide. The reaction is measured by capturing the peptide substrate on a cation exchange paper filter plate and scintillation counting of emitted beta particles.
# The kinase reactions (40 μL reaction volumes) are performed in 96-well V-bottom polystyrene plates. Reactions are initiated with the addition of Chk2 enzyme. […]
# Following Chk2 enzyme addition, the reactions are incubated at room temperature for 90 min, and then terminated with the addition of 140 μL of phosphoric acid. […] After sitting for 4 h at room temperature, the radioactivity in the plate is measured using a MicroBeta Trilux microplate scintillation counter (Perkin Elmer).
# For IC50 determination, the percent inhibition for each concentration is calculated using the […] from controls run on each plate. […] Absolute IC50 values are calculated from the resulting curve. […]
# Chk1 = target: T1, Chk1 (Homo sapiens, UniProt O14757); assay: Chk1 in vivo target inhibition assay (Calu-6 xenograft, phospho-Chk1 ser296); design: from tissue; host or cells: Calu-6 xenograft tumour from nude mice; species or system nude mice; details: Calu-6 tumors, oral, 6 h after gemcitabine 150 mg/kg ip, 2 h post dose
# T1 sequence (O14757 1-476): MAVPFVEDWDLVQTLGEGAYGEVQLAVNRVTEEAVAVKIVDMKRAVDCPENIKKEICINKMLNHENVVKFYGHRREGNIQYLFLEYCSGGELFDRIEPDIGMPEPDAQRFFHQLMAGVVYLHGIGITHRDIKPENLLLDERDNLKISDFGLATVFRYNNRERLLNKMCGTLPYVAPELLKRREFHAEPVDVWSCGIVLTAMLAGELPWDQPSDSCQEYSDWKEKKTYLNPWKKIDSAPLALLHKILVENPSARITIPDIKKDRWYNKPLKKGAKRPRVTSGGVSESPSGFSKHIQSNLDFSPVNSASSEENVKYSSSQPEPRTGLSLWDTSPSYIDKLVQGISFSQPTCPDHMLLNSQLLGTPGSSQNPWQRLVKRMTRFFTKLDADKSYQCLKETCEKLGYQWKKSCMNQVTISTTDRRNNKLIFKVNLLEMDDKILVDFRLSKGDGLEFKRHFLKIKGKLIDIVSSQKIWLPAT
# Procedure: Calu-6 cells are cultured in growth media (MEM with Earle's Balanced Salt Solution with L-glutamine supplemented with […], 1×MEM non-essential amino acids, 1× sodium pyruvate) and expanded. Cells are harvested and washed twice with phosphate buffered saline and 1×10^6 cells in growth media (without serum) are mixed with equal volume of BD Matrigel™ matrix, then injected subcutaneously into the flank of pre-irradiated (4.5 Gy) nude mice (athymic nude). At day 15 after implant (tumor size=150-200 mm^3), gemcitabine formulated fresh in saline daily is administered to animals by intraperitoneal route at 150 mg/kg dose. […] Antigen-antibody-reporter conjugates immobilized on the membrane are detected with the Super Signal Western Femto HRP-detection reagent.
# Signals are detected and captured using the FUJI LAS-4000 imaging system. Phospho-Chk1(ser296) band intensities are calculated using “Total Lab” software (Nonlinear Dynamics). The percent inhibition of the gemcitabine induced Chk1 autophosphorylation is calculated by using the following formula: % inhibition=(sample-phospho-Chk1 band—intensity average gemcitabine (Max) positive control-phospho-Chk1 band intensity)/(average negative control (Min)-phosphor-Chk1 band intensity—average gemcitabine (Max) positive control-phospho-Chk1 band intensity)×100.
# recombinant Chk2 protein kinase, sequence (O96017 whole entry, the tested form may be a part): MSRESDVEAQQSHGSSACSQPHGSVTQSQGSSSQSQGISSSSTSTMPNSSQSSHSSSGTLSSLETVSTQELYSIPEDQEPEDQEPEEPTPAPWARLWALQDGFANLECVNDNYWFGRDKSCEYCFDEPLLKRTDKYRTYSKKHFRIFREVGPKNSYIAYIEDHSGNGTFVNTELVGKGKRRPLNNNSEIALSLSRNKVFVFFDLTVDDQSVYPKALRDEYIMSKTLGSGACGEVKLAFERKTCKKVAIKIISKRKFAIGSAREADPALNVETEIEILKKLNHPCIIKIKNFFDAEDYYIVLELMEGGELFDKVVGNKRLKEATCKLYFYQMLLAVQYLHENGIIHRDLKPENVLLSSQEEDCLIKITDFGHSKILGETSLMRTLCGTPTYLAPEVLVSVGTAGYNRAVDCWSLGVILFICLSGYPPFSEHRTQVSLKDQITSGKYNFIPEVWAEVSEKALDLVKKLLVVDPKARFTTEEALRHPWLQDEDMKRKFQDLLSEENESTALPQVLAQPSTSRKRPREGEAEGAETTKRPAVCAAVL
Structure (SMILES),IC50 [1] [nM],Target Modulatory Effective Dose 50 (TMED50) for Chk1 autophosphorylation (Chk1) [mg/kg]
"COc1nc(C)ccc1-c1cc(Nc2cncc(O[C@@H]3CCCNC3)n2)[nH]n1 [Example 1, (R)-[5-(2-Methoxy-6-methyl-pyridin-3-yl)-2H-pyrazol-3-yl]-[6-(piperidin-3-yloxy)-pyrazin-2-yl]-amine]",11,–
"COc1nc(C)ccc1-c1cc(Nc2cncc(O[C@@H]3CCCNC3)n2)[nH]n1 [Example 3, (R)-[5-(2-Methoxy-6-methyl-pyridin-3-yl)-2H-pyrazol-3-yl]-[6-(piperidin-3-yloxy)-pyrazin-2-yl]-amine acetic acid salt]",–,1.3
